# Tests used:
# [1] = biological target: T1, human H3 receptor (Homo sapiens, UniProt Q9Y5N1); experiment: H3 Receptor Binding Test; settings: 50% inhibition of R(−)-α-methyl[3H]histamine (1 nM) binding; membrane preparation of human H3 receptor-expressing CHO-K1 cells
# T1 construct: purchased Perkin Elmer ES-392-M400UA; host or cells: CHO-K1 cells (recombinant expression), membrane preparation
# Experimental: A membrane preparation of human H3 receptor-expressing CHO-K1 cells (Perkin Elmer, ES-392-M400UA, 15 μg protein/200 μl), R(−)-α-methyl[^3H]histamine (Amersham, TRK-1017, specific activity: 1.74 TBq/mmol, 1 nM) and a test drug were reacted at room temperature for 1 hour. After completion of the reaction, the reaction mixture was subjected to suction filtration through a 0.3% polyethyleneimine-treated glass filter (GF/C). The glass filter was washed five times with 50 mM Tris-HCl washing solution (pH 7.4) containing 5 mM EDTA. After washing, the glass filter was dried and a scintillator was added thereto, followed by measurement of radioactivity on the filter using a liquid scintillation counter.
# Binding of R(−)-α-methyl[^3H]histamine in the presence of 10 μM R(−)-α-methylhistamine was defined as non-specific binding, and the difference between total binding and non-specific binding of R(−)-α-methyl[^3H]histamine was defined as specific binding of R(−)-α-methyl[^3H]histamine. A fixed concentration (1 nM) of R(−)-α-methyl[^3H]histamine was reacted under the above conditions with each test drug at various concentrations to obtain an inhibition curve. The inhibition curve was used to determine the concentration (IC50) of each test drug required for 50% inhibition of R(−)-α-methyl[^3H]histamine binding.
# [2] = biological target: T1, human H3 receptor; experiment: [35S]GTP-γ-S Binding Test; type: biochemical; settings: 50% inhibition of [35S]GTP-γ-S (0.2 nM) binding in presence of 10 nM R(−)-α-methylhistamine; human H3 receptor membrane preparation
# Experimental: The same human H3 receptor membrane preparation as used in Test Example 1 (7.5 μg protein/200 μl), 3 μM GDP, 10 nM R(−)-α-methylhistamine and a test compound were reacted at 30° C. for 20 minutes. After completion of the reaction, [^35S]GTP-γ-S (0.2 nM) was added and reacted for an additional 30 minutes. After completion of the reaction, the reaction mixture was subjected to suction filtration through a glass filter (GF/C). The glass filter was washed three times with 20 mM HEPES washing solution (pH 7.4) containing 100 mM sodium chloride and 3 mM magnesium chloride. After washing, the glass filter was dried and a scintillator was added thereto, followed by measurement of radioactivity on the filter using a liquid scintillation counter. Binding of [^35S]GTP-γ-S in the absence of R(−)-α-methylhistamine was defined as non-specific binding, and the difference between total binding in the presence of R(−)-α-methylhistamine and non-specific binding was defined as specific binding of [^35S]GTP-γ-S. Fixed concentrations of [^35S]GTP-γ-S (0.2 nM) and R(−)-α-methylhistamine (10 nM) were reacted under the above conditions with each test drug at various concentrations to obtain an inhibition curve. The inhibition curve was used to determine the concentration (IC50) of each test drug required for 50% inhibition of [^35S]GTP-γ-S binding.
# T1 sequence (Q9Y5N1 whole entry): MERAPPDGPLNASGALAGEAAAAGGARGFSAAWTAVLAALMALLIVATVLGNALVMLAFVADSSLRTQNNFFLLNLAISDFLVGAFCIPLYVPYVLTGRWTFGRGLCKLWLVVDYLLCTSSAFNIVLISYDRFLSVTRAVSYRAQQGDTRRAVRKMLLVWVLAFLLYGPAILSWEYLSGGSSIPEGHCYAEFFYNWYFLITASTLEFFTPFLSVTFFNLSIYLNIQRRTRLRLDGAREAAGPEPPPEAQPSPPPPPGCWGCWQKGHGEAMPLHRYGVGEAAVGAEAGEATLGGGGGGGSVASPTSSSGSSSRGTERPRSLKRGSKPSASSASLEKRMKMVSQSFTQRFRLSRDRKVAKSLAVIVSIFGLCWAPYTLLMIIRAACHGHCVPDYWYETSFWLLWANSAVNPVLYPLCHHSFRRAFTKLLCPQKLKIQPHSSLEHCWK
SMILES,IC50 [1] [nM],IC50 [2] [nM],melting point [°C]
"C[C@@H]1CCCN1CCCOc1ccc2c(c1)CCC(=O)N2c1ccc(F)cc1 [Compound No. 6, 1-(4-fluorophenyl)-6-{3-[(2R)-2-methylpyrrolidin-1-yl]propoxy}-3,4-dihydroquinolin-2(1H)-one]",1.1,0.28,–
"O=C1CCc2cc(OC3CCN(C4CCC4)CC3)ccc2N1c1cncc(F)c1 [Compound No. 71, 6-[(1-cyclobutylpiperidin-4-yl)oxy]-1-(5-fluoropyridin-3-yl)-3,4-dihydroquinolin-2(1H)-one]",1.4,0.26,–
Cl.O=C1CCc2cc(OC3CCN(C4CCC4)CC3)ccc2N1c1ccc(F)cc1,–,–,> 250
"O=C1CCc2cc(OC3CCN(C4CCC4)CC3)ccc2N1c1cnc2ccccc2c1 [Compound No. 58, 6-[(1-cyclobutylpiperidin-4-yl)oxy]-3,4-dihydro-2H-1,3′-biquinolin-2-one]",1.6,0.4,–
"C[C@@H]1CCCN1CCCOc1ccc2c(c1)CCC(=O)N2c1ccc(C(=O)N(C)C)cc1 [Compound No. 13, N,N-dimethyl-4-[6-{3-[(2R)-2-methylpyrrolidin-1-yl]propoxy}-2-oxo-3,4-dihydroquinolin-1(2H)-yl]benzamide]",8.3,0.62,–
"O=C1CCc2cc(OC3CCN(C4CCC4)CC3)ccc2N1c1ccc(F)cc1 [Compound No. 60, 6-[(1-cyclobutylpiperidin-4-yl)oxy]-1-(4-fluorophenyl)-3,4-dihydroquinolin-2(1H)-one]",0.8,0.23,–
"O=C1CCc2cc(OC3CCN(C4CCC4)CC3)ccc2N1c1cccc(F)c1 [Compound No. 69, 6-[(1-cyclobutylpiperidin-4-yl)oxy]-1-(3-fluorophenyl)-3,4-dihydroquinolin-2(1H)-one]",0.65,0.2,–
"N#Cc1ccc(N2C(=O)CCc3cc(OC4CCN(C5CCC5)CC4)ccc32)cc1 [Compound No. 73, 4-{6-[(1-cyclobutylpiperidin-4-yl)oxy]-2-oxo-3,4-dihydroquinolin-1(2H)-yl}benzonitrile]",1,0.23,–
"C[C@@H]1CCCN1CCCOc1ccc2c(c1)CCC(=O)N2c1ccc(CN(C)C)cc1 [Compound No. 12, 1-{4-[(dimethylamino)methyl]phenyl}-6-{3-[(2R)-2-methylpyrrolidin-1-yl]propoxy}-3,4-dihydroquinolin-2(1H)-one]",0.68,0.21,–
"C[C@@H]1CCCN1CCCOc1ccc2c(c1)CCC(=O)N2c1ccc(CO)cc1 [Compound No. 10, 1-[4-(hydroxymethyl)phenyl]-6-{3-[(2R)-2-methylpyrrolidin-1-yl]propoxy}-3,4-dihydroquinolin-2(1H)-one]",1.6,–,–
"O=C1CCc2cc(OCCCN3CCCC3)ccc2N1c1ccc(F)c(F)c1 [Compound No. 81, 1-(3,4-difluorophenyl)-6-[3-(pyrrolidin-1-yl)propoxy]-3,4-dihydroquinolin-2(1H)-one]",18,–,–
"C[C@@H]1CCCN1CCCOc1ccc2c(c1)CCC(=O)N2c1ccccc1 [Compound No. 2, 6-{3-[(2R)-2-methylpyrrolidin-1-yl]propoxy}-1-phenyl-3,4-dihydroquinolin-2(1H)-one]",0.79,–,–
"C[C@@H]1CCCN1CCCOc1ccc2c(c1)CCC(=O)N2c1cncc(C#N)c1 [Compound No. 50, 5-[6-{3-[(2R)-2-methylpyrrolidin-1-yl]propoxy}-2-oxo-3,4-dihydroquinolin-1(2H)-yl]pyridine-3-carbonitrile]",5.7,–,–
"C[C@@H]1CCCN1CCCOc1ccc2c(c1)CCC(=O)N2c1ccc(Cl)cn1 [Compound No. 49, 1-(5-chloropyridin-2-yl)-6-{3-[(2R)-2-methylpyrrolidin-1-yl]propoxy}-3,4-dihydroquinolin-2(1H)-one]",4,–,–
"Cc1ccc(N2C(=O)CCc3cc(OCCCN4CCC[C@H]4C)ccc32)cn1 [Compound No. 47, 1-(6-methylpyridin-3-yl)-6-{3-[(2R)-2-methylpyrrolidin-1-yl]propoxy}-3,4-dihydroquinolin-2(1H)-one]",2.9,–,–
"CC(C)(C)N1CCC(Oc2ccc3c(c2)CCC(=O)N3c2ccccc2)CC1 [Compound No. 61, 6-[(1-tert-butylpiperidin-4-yl)oxy]-1-phenyl-3,4-dihydroquinolin-2(1H)-one]",2.4,–,–
"C[C@@H]1CCCN1CCCOc1ccc2c(c1)CCC(=O)N2c1ccc(C(=O)N2CCCC2)cc1 [Compound No. 14, 6-{3-[(2R)-2-methylpyrrolidin-1-yl]propoxy}-1-[4-(pyrrolidin-1-ylcarbonyl)phenyl]-3,4-dihydroquinolin-2(1H)-one]",5.7,–,–
"C[C@@H]1CCCN1CCCOc1ccc2c(c1)CCC(=O)N2c1ncccc1C#N [Compound No. 51, 2-[6-{3-[(2R)-2-methylpyrrolidin-1-yl]propoxy}-2-oxo-3,4-dihydroquinolin-1(2H)-yl]pyridine-3-carbonitrile]",13,–,–
"O=C1CCc2cc(OC3CCN(C4CCC4)CC3)ccc2N1c1ccccc1 [Compound No. 72, 6-[(1-cyclobutylpiperidin-4-yl)oxy]-1-phenyl-3,4-dihydroquinolin-2(1H)-one]",0.6,0.16,–
"C[C@@H]1CCCN1CCCOc1ccc2c(c1)CCC(=O)N2c1ccc(Cl)cc1F [Compound No. 30, 1-(4-chloro-2-fluorophenyl)-6-{3-[(2R)-2-methylpyrrolidin-1-yl]propoxy}-3,4-dihydroquinolin-2(1H)-one]",1.1,–,–
"C[C@@H]1CCCN1CCCOc1ccc2c(c1)CCC(=O)N2c1cncnc1 [Compound No. 36, 6-{3-[(2R)-2-methylpyrrolidin-1-yl]propoxy}-1-(pyrimidin-5-yl)-3,4-dihydroquinolin-2(1H)-one]",5.8,–,–
"O=C1CCc2cc(OCCCN3CCCCC3)ccc2N1c1ccc(F)cc1 [Compound No. 82, 1-(4-fluorophenyl)-6-[3-(piperidin-1-yl)propoxy]-3,4-dihydroquinolin-2(1H)-one]",9.1,–,–
"O=C1CCc2cc(OC3CCN(CC4CC4)CC3)ccc2N1c1ccc(F)cc1 [Compound No. 76, 6-{[1-(cyclopropylmethyl)piperidin-4-yl]oxy}-1-(4-fluorophenyl)-3,4-dihydroquinolin-2(1H)-one]",9.8,–,–
"C[C@@H]1CC[C@@H](C)N1CCCOc1ccc2c(c1)CCC(=O)N2c1ccc(F)cc1 [Compound No. 84, 6-{3-[(2R,5R)-2,5-dimethylpyrrolidin-1-yl]propoxy}-1-(4-fluorophenyl)-3,4-dihydroquinolin-2(1H)-one]",5,–,–
"C[C@@H]1CCCN1CCCOc1ccc2c(c1)CCC(=O)N2c1ccc(C#N)cn1 [Compound No. 46, 6-[6-{3-[(2R)-2-methylpyrrolidin-1-yl]propoxy}-2-oxo-3,4-dihydroquinolin-1(2H)-yl]pyridine-3-carbonitrile]",22,–,–
"O=C1CCc2cc(OCCCN3CCCC3)ccc2N1c1cccc(F)c1 [Compound No. 79, 1-(3-fluorophenyl)-6-[3-(pyrrolidin-1-yl)propoxy]-3,4-dihydroquinolin-2(1H)-one]",17,–,–

# — patent publication US8609847B2, “Dihydroquinolinone derivatives” (Taisho Pharmaceutical Co., Ltd, priority 2009, dated 2013)
